In patent publication US9328083B2, “2-aminated methylene or 2-esterified methylene tanshinone derivatives, and preparation method and application thereof” (HANGZHOU BENSHENG PHARMACEUTICAL CO., LTD., priority 2011, dated 2016):
In brackets after ≈: the same amount, converted by molar mass.

Assays:
[1] = test system: MGC 803 (human gastric cancer cell); assay: MTT growth inhibition of human solid tumor cells, 72 h; format: cell-based; conditions: Homo sapiens, MGC-803, 72 h; for IC50: read-out: IC50; for IC90: read-out: IC90
Summary of the method: (§1)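 4000 cells/well; DMEM high glucose + 10% FBS; 37° C, 5% CO2, 24 h attachment. Compounds from 10 mg/mL DMSO stock, diluted in medium to graded doses. Viable cells read after exposure.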

A549 (human lung cancer) = assay: as above; format: cell-based; conditions: Homo sapiens, A549, 72 h; for IC50: read-out: IC50; for IC90: read-out: IC90
Summary of the method: as §1

[2] = test system: Hela (human cervical cancer cell); assay: as above; format: cell-based; conditions: Homo sapiens, HeLa, 72 h; for IC50: read-out: IC50; for IC90: read-out: IC90
Summary of the method: as §1

[3] = test system: CaES-17 (esophageal cancer cell); assay: as above; format: cell-based; conditions: Homo sapiens, CaEs17, CaEs-17, 72 h; for IC50: read-out: IC50; for IC90: read-out: IC90
Summary of the method: as §1

[4] = test system: PANC-1 (pancreatic cancer); assay: as above; format: cell-based; conditions: Homo sapiens, PANC-1, 72 h; for IC50: read-out: IC50; for IC90: read-out: IC90
Summary of the method: as §1

[5] = test system: Hep G2 (human liver cancer cell); assay: as above; format: cell-based; conditions: Homo sapiens, HepG2, Hep G2, 72 h; for IC50: read-out: IC50; for IC90: read-out: IC90
Summary of the method: as §1

[6] = test system: RKO (human colon adenocarcinoma cell); assay: as above; format: cell-based; conditions: Homo sapiens; for IC50: read-out: IC50; for IC90: read-out: IC90
Summary of the method: as §1

[7] = test system: U87 MG (malignant glioma cell); assay: as above; format: cell-based; conditions: Homo sapiens, U-87 MG, U87-MG, 72 h; for IC50: read-out: IC50; for IC90: read-out: IC90
Summary of the method: as §1

[8] = test system: SK-OV-3 (ovarian cancer cell); assay: as above; format: cell-based; conditions: Homo sapiens, SK-OV-3, 72 h; for IC50: read-out: IC50; for IC90: read-out: IC90
Summary of the method: as §1

[9] = test system: CNE (nasopharyngeal carcinoma cell); assay: as above; format: cell-based; conditions: Homo sapiens; for IC50: read-out: IC50; for IC90: read-out: IC90
Summary of the method: as §1

[10] = test system: Hep-2 (laryngeal carcinoma); assay: as above; format: cell-based; conditions: Homo sapiens, HEp-2, 72 h; for IC50: read-out: IC50; for IC90: read-out: IC90
Summary of the method: as §1

PC-3 (prostate cancer) = assay: as above; format: cell-based; conditions: Homo sapiens, PC-3, 72 h; for IC50: read-out: IC50; for IC90: read-out: IC90
Summary of the method: as §1

[11] = test system: Becap37 (human breast cancer cell); assay: as above; format: cell-based; conditions: Homo sapiens, Becap-37, 72 h; for IC50: read-out: IC50; for IC90: read-out: IC90
Summary of the method: as §1

MG63 (osteosarcoma) = assay: as above; format: cell-based; conditions: Homo sapiens, MG-63, 72 h; for IC50: read-out: IC50; for IC90: read-out: IC90
Summary of the method: as §1

[12] = test system: H9 (acute lymphoblastic leukemia, ALL); assay: MTT growth inhibition of leukemia cells, 72 h; format: cell-based, human; conditions: Homo sapiens, H9, 72 h; for IC50: read-out: IC50; for IC90: read-out: IC90
Summary of the method: (§2)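 Readout is MTT viable-cell determination after 72 h exposure (37° C, 5% CO2) to compounds added at several concentrations one day after plating 6000 cells/well. Medium RPMI-1640 plus 10% fetal bovine serum; working solutions made from a 10 mg/mL DMSO stock.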

[13] = test system: Kasumi-1 (acute myeloid leukemia M2 type, AML-M2); assay: MTT growth inhibition of leukemia cells, 72 h; format: cell-based, human; conditions: Homo sapiens, Kasumi-1, 72 h; for IC50: read-out: IC50; for IC90: read-out: IC90
Summary of the method: as §2

[14] = test system: Jurkat (acute lymphoblastic leukemia, ALL); assay: MTT growth inhibition of leukemia cells, 72 h; format: cell-based, human; conditions: Homo sapiens, 72 h; for IC50: read-out: IC50; for IC90: read-out: IC90
Summary of the method: as §2

[15] = test system: K562/adr (drug-resistant, chronic myeloid leukemia, CML); assay: MTT growth inhibition of leukemia cells, 72 h; format: cell-based, human; conditions: Homo sapiens, K562/Adr; for IC50: read-out: IC50; for IC90: read-out: IC90
Summary of the method: as §2

[16] = test system: NB4 (acute promyelocytic leukemia, AML); assay: MTT growth inhibition of leukemia cells, 72 h; format: cell-based, human; conditions: Homo sapiens, NB4, 72 h; for IC50: read-out: IC50; for IC90: read-out: IC90
Summary of the method: as §2

[17] = test system: RPMI8226 (multiple myeloma); assay: MTT growth inhibition of multiple myeloma cells, 72 h; format: cell-based, human; conditions: Homo sapiens, RPMI 8226, 72 h; for IC50: read-out: IC50; for IC90: read-out: IC90
Summary of the method: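 Viability read by MTT after 72 h at 37° C, 5% CO2: compounds from a 10 mg/mL DMSO stock were diluted in medium and added at several concentrations to 6000 RPMI8226 cells per well in 1640 medium plus 10% FBS.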

Row | SMILES | IC50 [1] [µg/mL] | IC90 [1] [µg/mL] | IC50 (A549 (human lung cancer)) [µg/mL] | IC90 (A549 (human lung cancer)) [µg/mL] | IC50 [2] [µg/mL] | IC90 [2] [µg/mL] | IC50 [3] [µg/mL] | IC90 [3] [µg/mL] | IC50 [4] [µg/mL] | IC90 [4] [µg/mL] | IC50 [5] [µg/mL] | IC90 [5] [µg/mL] | IC50 [6] [µg/mL] | IC90 [6] [µg/mL] | IC50 [7] [µg/mL] | IC90 [7] [µg/mL] | IC50 [8] [µg/mL] | IC90 [8] [µg/mL] | IC50 [9] [µg/mL] | IC90 [9] [µg/mL] | further results
1 | Cc1c(CNCC2CCCCC2)oc2c1C(=O)C(=O)c1c-2ccc2c(C)cccc12 [BS-TA-B06] | 7.82 (≈ 19.5 µM) | > 16 | 1.59 (≈ 3.96 µM) | 10 (≈ 24.9 µM) | 7.49 (≈ 18.7 µM) | > 16 | ≥ 19.3 | > 16 | 1.57 (≈ 3.91 µM) | 16.7 (≈ 41.6 µM) | 13.5 (≈ 33.6 µM) | > 16 | 3.42 (≈ 8.52 µM) | > 16 | 6.5 (≈ 16.2 µM) | > 16 | > 16 | > 16 | 11.8 (≈ 29.4 µM) | > 16 | IC50 [10]: 9.23 µg/mL (≈ 23 µM); IC90 [10]: > 16 µg/mL; IC50 (PC-3 (prostate cancer)): 10.3 µg/mL (≈ 25.8 µM); IC90 (PC-3 (prostate cancer)): 24.5 µg/mL (≈ 60.9 µM); IC50 [11]: 5.9 µg/mL (≈ 14.7 µM); IC90 [11]: > 16 µg/mL; IC50 (MG63 (osteosarcoma)): 4.76 µg/mL (≈ 11.9 µM); IC90 (MG63 (osteosarcoma)): > 16 µg/mL; IC50 [12]: 3.2 µg/mL (≈ 7.97 µM); IC90 [12]: 14.1 µg/mL (≈ 35.1 µM); IC50 [13]: 0.57 µg/mL (≈ 1.42 µM); IC90 [13]: 1.73 µg/mL (≈ 4.31 µM); IC50 [14]: 5.25 µg/mL (≈ 13.1 µM); IC90 [14]: 16 µg/mL (≈ 39.8 µM); IC50 [15]: 0.81 µg/mL (≈ 2.02 µM); IC90 [15]: 1.8 µg/mL (≈ 4.48 µM); IC50 [16]: 2.13 µg/mL (≈ 5.31 µM); IC90 [16]: 7.29 µg/mL (≈ 18.2 µM); IC50 [17]: 6.16 µg/mL (≈ 15.3 µM); IC90 [17]: 16 µg/mL (≈ 39.8 µM)
2 | COC(=O)/C=C/C(=O)OCCN(C)Cc1oc2c(c1C)C(=O)C(=O)c1c-2ccc2c(C)cccc12 [BS-TA-74] | 0.8 (≈ 1.68 µM) | 3.87 (≈ 8.14 µM) | 1.79 (≈ 3.76 µM) | 6.05 (≈ 12.7 µM) | 1.15 (≈ 2.42 µM) | 3.59 (≈ 7.55 µM) | 1.09 (≈ 2.29 µM) | 1.86 (≈ 3.91 µM) | 0.87 (≈ 1.83 µM) | 11.1 (≈ 23.3 µM) | 1.35 (≈ 2.84 µM) | 5.26 (≈ 11.1 µM) | 0.28 (≈ 0.589 µM) | 2.88 (≈ 6.06 µM) | 0.86 (≈ 1.81 µM) | 1.83 (≈ 3.85 µM) | 3.96 (≈ 8.33 µM) | 7.99 (≈ 16.8 µM) | 1.39 (≈ 2.92 µM) | 2.91 (≈ 6.12 µM) | IC50 [10]: 1.28 µg/mL (≈ 2.69 µM); IC90 [10]: 3.67 µg/mL (≈ 7.72 µM); IC50 (PC-3 (prostate cancer)): 1.71 µg/mL (≈ 3.6 µM); IC90 (PC-3 (prostate cancer)): 8.19 µg/mL (≈ 17.2 µM); IC50 [11]: 0.85 µg/mL (≈ 1.79 µM); IC90 [11]: 1.81 µg/mL (≈ 3.81 µM); IC50 (MG63 (osteosarcoma)): 1.02 µg/mL (≈ 2.15 µM); IC90 (MG63 (osteosarcoma)): 3.26 µg/mL (≈ 6.86 µM); IC50 [12]: 0.25 µg/mL (≈ 0.526 µM); IC90 [12]: 1.49 µg/mL (≈ 3.13 µM); IC50 [13]: 0.26 µg/mL (≈ 0.547 µM); IC90 [13]: 1.57 µg/mL (≈ 3.3 µM); IC50 [14]: 0.96 µg/mL (≈ 2.02 µM); IC90 [14]: 1.86 µg/mL (≈ 3.91 µM); IC50 [15]: 0.8 µg/mL (≈ 1.68 µM); IC90 [15]: 1.8 µg/mL (≈ 3.79 µM); IC50 [16]: 0.19 µg/mL (≈ 0.4 µM); IC90 [16]: 0.49 µg/mL (≈ 1.03 µM); IC50 [17]: 0.45 µg/mL (≈ 0.946 µM); IC90 [17]: 1.78 µg/mL (≈ 3.74 µM)
3 | Cc1c(CNCCC(C)(C)C)oc2c1C(=O)C(=O)c1c-2ccc2c(C)cccc12 [BS-TA-B14] | 14.4 (≈ 37 µM) | > 16 | 1.75 (≈ 4.49 µM) | 9 (≈ 23.1 µM) | 5.28 (≈ 13.6 µM) | 84.2 (≈ 216 µM) | > 16 | > 16 | 1.88 (≈ 4.83 µM) | 6.19 (≈ 15.9 µM) | 16 (≈ 41.1 µM) | > 16 | 3.36 (≈ 8.63 µM) | > 16 | 3.85 (≈ 9.88 µM) | > 16 | > 16 | > 16 | > 16 | > 16 | IC50 [10]: 14.3 µg/mL (≈ 36.7 µM); IC90 [10]: 35.2 µg/mL (≈ 90.5 µM); IC50 (PC-3 (prostate cancer)): 14.7 µg/mL (≈ 37.6 µM); IC90 (PC-3 (prostate cancer)): > 16 µg/mL; IC50 [11]: 4.6 µg/mL (≈ 11.8 µM); IC90 [11]: > 16 µg/mL; IC50 (MG63 (osteosarcoma)): 4.86 µg/mL (≈ 12.5 µM); IC90 (MG63 (osteosarcoma)): > 16 µg/mL; IC50 [12]: 2 µg/mL (≈ 5.13 µM); IC90 [12]: 11.9 µg/mL (≈ 30.6 µM); IC50 [13]: 0.6 µg/mL (≈ 1.54 µM); IC90 [13]: 1.99 µg/mL (≈ 5.11 µM); IC50 [14]: 6.66 µg/mL (≈ 17.1 µM); IC90 [14]: > 16 µg/mL; IC50 [15]: 0.77 µg/mL (≈ 1.98 µM); IC90 [15]: 1.82 µg/mL (≈ 4.67 µM); IC50 [16]: 3.59 µg/mL (≈ 9.22 µM); IC90 [16]: 13.7 µg/mL (≈ 35.2 µM); IC50 [17]: 8 µg/mL (≈ 20.5 µM); IC90 [17]: > 16 µg/mL
